From ChEMBL document CHEMBL3638933, “Pyrrolopyridazine JAK3 inhibitors and their use for the treatment of inflammatory and autoimmune diseases” (2014)
pIC50: −log10 of the molar value.

Experiments:
[1] = target: T1, Tyrosine-protein kinase JAK3 (Homo sapiens, UniProt P52333); assay: Reactions were incubated for 30 minutes at room temperature and stopped by the addition of cold trichloroacetic acid (TCA) to a final concentration of 15%. TCA precipitates were collected onto 384 well phosphocellulose filters (Millipore) using a Platemate to transfer the reaction mixture, washed on an EMBLA plate washer and the filters were quantitated using a TopCount 384-well liquid scintillation counter. […] Compounds were dissolved at 10 mM in dimethylsulfoxide (DMSO) and evaluated at six concentrations, each in triplicate. The final concentration of DMSO in the assay equaled 2%.
T1 sequence (P52333 whole entry): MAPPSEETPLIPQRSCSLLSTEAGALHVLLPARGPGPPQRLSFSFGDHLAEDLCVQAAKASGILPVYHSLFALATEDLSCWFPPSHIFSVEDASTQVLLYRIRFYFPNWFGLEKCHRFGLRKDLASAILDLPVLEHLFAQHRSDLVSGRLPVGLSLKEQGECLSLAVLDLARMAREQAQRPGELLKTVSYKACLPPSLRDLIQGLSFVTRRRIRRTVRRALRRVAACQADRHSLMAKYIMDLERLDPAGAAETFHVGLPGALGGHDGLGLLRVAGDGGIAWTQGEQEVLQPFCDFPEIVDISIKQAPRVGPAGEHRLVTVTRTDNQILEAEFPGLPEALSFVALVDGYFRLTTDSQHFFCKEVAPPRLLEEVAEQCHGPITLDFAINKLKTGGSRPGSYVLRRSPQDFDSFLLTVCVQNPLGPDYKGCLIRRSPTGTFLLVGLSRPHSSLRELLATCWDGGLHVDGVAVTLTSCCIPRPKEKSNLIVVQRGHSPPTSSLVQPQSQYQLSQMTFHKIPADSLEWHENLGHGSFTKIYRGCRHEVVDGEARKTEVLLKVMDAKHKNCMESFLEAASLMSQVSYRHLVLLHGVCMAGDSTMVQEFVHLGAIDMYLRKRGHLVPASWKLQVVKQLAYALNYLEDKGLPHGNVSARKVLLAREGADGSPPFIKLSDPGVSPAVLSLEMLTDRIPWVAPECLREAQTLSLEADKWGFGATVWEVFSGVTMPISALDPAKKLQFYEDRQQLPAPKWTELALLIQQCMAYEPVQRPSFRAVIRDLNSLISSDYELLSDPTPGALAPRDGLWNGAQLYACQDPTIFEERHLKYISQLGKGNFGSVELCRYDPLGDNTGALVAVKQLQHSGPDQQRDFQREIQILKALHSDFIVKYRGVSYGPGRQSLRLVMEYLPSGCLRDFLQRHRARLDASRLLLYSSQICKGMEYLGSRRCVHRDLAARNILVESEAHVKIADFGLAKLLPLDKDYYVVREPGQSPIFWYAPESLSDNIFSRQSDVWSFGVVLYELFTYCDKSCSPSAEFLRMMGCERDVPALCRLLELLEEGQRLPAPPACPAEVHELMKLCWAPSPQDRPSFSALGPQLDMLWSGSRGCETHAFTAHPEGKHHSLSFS

[2] = target: Tyrosine-protein kinase JAK1 (Homo sapiens, UniProt P23458); assay: Kinase Assay: The assay reactions were performed in U-bottom 384-well plates. The final assay volume was 30 ul prepared from 15 ul additions of enzyme and substrates (fluoresceinated peptide and ATP) and test compounds in assay buffer (20 mM HEPES pH 7.4, 10 mM MgCl2, 25 mM beta-glycerol phosphate, 0.015% Brij35 and 4 mM DTT). The reaction was initiated by the combination of GST-JAK1 enzyme with substrates and test compounds. The reactions were incubated at room temperature for 3 hours and terminated by adding 60 ul of 35 mM EDTA to each sample. Each reaction mixture was analyzed on the Caliper LabChip 3000 (Caliper, Hopkinton, MA) by electrophoretic separation of the fluorescent substrate and phosphorylated product. […] The final concentration of reagents in the assays was: ATP, 100 uM; fluoresceinated peptide.
Chain of Tyrosine-protein kinase JAK1 (P23458 whole entry): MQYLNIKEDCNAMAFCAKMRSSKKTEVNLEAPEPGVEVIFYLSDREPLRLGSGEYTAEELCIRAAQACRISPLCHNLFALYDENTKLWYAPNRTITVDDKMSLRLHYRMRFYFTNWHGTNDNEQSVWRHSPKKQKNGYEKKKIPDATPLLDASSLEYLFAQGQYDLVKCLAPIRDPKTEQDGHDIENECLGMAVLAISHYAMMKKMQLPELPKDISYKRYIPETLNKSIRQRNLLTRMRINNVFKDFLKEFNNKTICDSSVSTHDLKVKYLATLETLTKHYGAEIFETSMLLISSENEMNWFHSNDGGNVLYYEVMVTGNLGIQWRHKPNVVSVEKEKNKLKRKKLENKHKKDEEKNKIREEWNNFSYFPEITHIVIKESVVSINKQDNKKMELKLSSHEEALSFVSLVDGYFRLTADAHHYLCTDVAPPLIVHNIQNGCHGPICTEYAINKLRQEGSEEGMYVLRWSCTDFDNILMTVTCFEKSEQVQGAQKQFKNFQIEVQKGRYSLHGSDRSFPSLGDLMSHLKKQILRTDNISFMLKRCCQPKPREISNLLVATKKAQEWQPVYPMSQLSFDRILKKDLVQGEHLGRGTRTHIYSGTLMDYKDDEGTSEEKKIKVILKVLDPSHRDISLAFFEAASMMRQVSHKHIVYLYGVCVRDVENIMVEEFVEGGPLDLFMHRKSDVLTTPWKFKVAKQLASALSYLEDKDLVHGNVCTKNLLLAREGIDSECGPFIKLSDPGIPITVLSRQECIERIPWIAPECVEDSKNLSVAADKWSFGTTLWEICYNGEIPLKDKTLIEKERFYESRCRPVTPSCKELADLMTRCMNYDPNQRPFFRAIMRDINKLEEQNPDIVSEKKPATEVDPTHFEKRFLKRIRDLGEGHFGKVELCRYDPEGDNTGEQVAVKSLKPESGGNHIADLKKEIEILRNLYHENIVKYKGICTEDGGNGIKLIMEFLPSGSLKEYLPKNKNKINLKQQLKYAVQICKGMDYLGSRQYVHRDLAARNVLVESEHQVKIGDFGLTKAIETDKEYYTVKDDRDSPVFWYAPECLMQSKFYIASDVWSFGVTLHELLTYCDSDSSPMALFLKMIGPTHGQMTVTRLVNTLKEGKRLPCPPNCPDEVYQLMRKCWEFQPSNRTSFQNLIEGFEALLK

pIC50 [1]: 9.00 | pIC50 [2]: 8.24
SMILES: CC1(C)[C@H](Nc2c(C(N)=O)cnn3cc(-c4ccc(C#N)nc4)cc23)CC[C@]1(C)C(N)=O
